Where “and” joins values, the source holds several entries; their conditions need not be identical. Equal entries are not always repeated. ± gives the expanded uncertainty stated by the source.
Conditions: 101.33 kPa, Liquid

Row | mass density (283.15 K) [kg/m3] | viscosity (283.15 K) [mPa·s] | mass density (293.15 K) [kg/m3] | viscosity (293.15 K) [mPa·s] | mass density (313.15 K) [kg/m3] | viscosity (313.15 K) [mPa·s] | mass density (323.15 K) | mass density (333.15 K) [kg/m3] | viscosity (333.15 K) [mPa·s] | mass density (343.15 K) [kg/m3] | viscosity (343.15 K) [mPa·s] | Compound | mass density (303.15 K) | viscosity (303.15 K) | viscosity (323.15 K)
1 | 1046.91 ± 3.4 | 1.59 ± 0.11 | 1035.03 ± 3.1 | 1.312 ± 0.094 | 1011.32 ± 2.5 | 0.946 ± 0.071 | 999.12 ± 2.2 kg/m3 | 987.92 ± 2.5 | 0.721 ± 0.056 | 976.61 ± 2.8 | 0.64 ± 0.051 | C1COCCO1 [1,4-dioxane] | 1022.71 ± 2.8 kg/m3 | 1.102 ± 0.081 mPa·s | 0.825 ± 0.063 mPa·s
2 | 828.23 ± 6.5 | 7.459 ± 0.44 | 821.01 ± 6.7 | 5.335 ± 0.34 | 810.91 ± 7 | 2.937 ± 0.2 | 806.84 ± 7 kg/m3 and 804.22 ± 7.1 kg/m3 | 802.91 ± 7.2 | 1.654 ± 0.12 | 798.64 ± 7.3 | 1.411 ± 0.1 | CCCCCCO [hexan-1-ol] | 815.92 ± 6.8 kg/m3 and 813.96 ± 6.9 kg/m3 | 3.763 ± 0.25 mPa·s and 3.917 ± 0.26 mPa·s | 2.172 ± 0.15 mPa·s and 2.276 ± 0.16 mPa·s
